Values quoted from earlier work as cited in PubChem BioAssay AID1259409 (Chemical Carcinogenesis Research Information System (CCRIS), 2018).

System: rodent chemically induced tumor inhibition, incidence and multiplicity
Experiment: CCRIS tumor inhibitor studies

## CC1=C(/C=C/C(C)=C/C=C/C(C)=C/C=C/C=C(C)/C=C/C=C(C)/C=C/C2=C(C)CCCC2(C)C)C(C)(C)CCC1
Carcinogen: 1,2-DIMETHYLHYDRAZINE, 540-73-8, Dose [Inhibitor]: 0, 0.005% IN DIET FOR 14 WK BEGINNING 3 D PRIOR TO CARCINOGEN TREATMENT (STUDY DURATION: 26 WK), Route [Inhibitor]: ORAL, Species: RAT, Strain/Sex: SPRAGUE-DAWLEY/MALE, Target Tissue: Type of Lesion: INTESTINE: CARCINOMA, Dose [Carcinogen]: 20 MG/KG BW 1/WK FOR 12 WK, Promoter: NONE USED
  tumour outcome (control, treated, inhibition, significance): 23/28 (82%), 11/20 (55%), 33%, p<0.05
Carcinogen: 4-(METHYLNITROSAMINO)-1-(3-PYRIDYL)-1-BUTANONE [64091-50-5], Dose [Inhibitor]: 16 MG/KG SC 2X/WK FOR 16 WK BEGINNING 1 WK PRIOR TO FIRST CARCINOGEN DOSE (STUDY DURATION: 16 WK), Route [Inhibitor]: SUBCUTANEOUS, Species: MOUSE, Strain/Sex: A/J/FEMALE, Target Tissue: Type of Lesion: LUNG: ADENOMA OR ADENOCARCINOMA, Dose [Carcinogen]: 10 UMOL ONCE 1 WK POST FIRST INHIBITOR DOSE (STUDY DURATION: 16 WK), Promoter: NONE
  tumour outcome (control, treated, inhibition, significance): 100%, 100%, 0%, not significant
Carcinogen: 4-(METHYLNITROSAMINO)-1-(3-PYRIDYL)-1-BUTANONE [64091-50-5], Dose [Inhibitor]: 32 MG/KG SC 2X/WK FOR 17 WK BEGINNING 1 WK PRIOR TO FIRST CARCINOGEN DOSE (STUDY DURATION: 17 WK), Route [Inhibitor]: SUBCUTANEOUS, Species: MOUSE, Strain/Sex: A/J/FEMALE, Target Tissue: Type of Lesion: LUNG: ADENOMA, Dose [Carcinogen]: 10 UMOL ONCE 1 WK POST FIRST INHIBITOR DOSE (STUDY DURATION: 17 WK), Promoter: NONE
  tumour outcome (control, treated, inhibition, significance): 100%, 100%, 0%, not significant
Carcinogen: 4-(METHYLNITROSAMINO)-1-(3-PYRIDYL)-1-BUTANONE [64091-50-5], Dose [Inhibitor]: 32 MG/KG SC 2X/WK FOR 53 WK BEGINNING 1 WK PRIOR TO FIRST CARCINOGEN DOSE (STUDY DURATION: 53 WK), Route [Inhibitor]: SUBCUTANEOUS, Species: MOUSE, Strain/Sex: A/J/FEMALE, Target Tissue: Type of Lesion: LUNG: ADENOMA OR ADENOCARCINOMA, Dose [Carcinogen]: 10 UMOL ONCE 1 WK POST FIRST INHIBITOR DOSE (STUDY DURATION: 53 WK), Promoter: NONE
  tumour outcome (control, treated, inhibition, significance): 100%, 100%, 0%, not significant
Carcinogen: 4-NITROQUINOLINE-1-OXIDE, 56-57-5, Dose [Inhibitor]: 0, 0.05% IN DRINKING WATER AD LIBITUM (STUDY DURATION: 30 WK), Route [Inhibitor]: ORAL, Species: MOUSE, Strain/Sex: DDY/MALE, Target Tissue: Type of Lesion: LUNG: TUMOR, Dose [Carcinogen]: 10 MG/KG BW IN OLIVE OIL/CHOLESTEROL (20:1) ONCE, Promoter: GLYCEROL, 56-81-5
  tumour outcome (control, treated, inhibition, significance): 94%, 93%, 1%, not significant
Carcinogen: 4-NITROQUINOLINE-1-OXIDE, 56-57-5, Dose [Inhibitor]: 0, 0.05% IN DRINKING WATER BEGINNING 5 WK POST CARCINOGEN TREATMENT AND CONTINUING FOR 25 WK (STUDY DURATION: 30 WK), Route [Inhibitor]: ORAL, Species: MOUSE, Strain/Sex: DDY/MALE, Target Tissue: Type of Lesion: LUNG: TUMORS, Dose [Carcinogen]: 10 MG/KG BW IN OLIVE OIL AND CHOLESTEROL (20:1) ONCE, Promoter: NONE USED
  tumour outcome (control, treated, inhibition, significance): 94%, 93%, 1%, not significant
Carcinogen: 4-NITROQUINOLINE-1-OXIDE, 56-57-5, Dose [Inhibitor]: 0, 500 PPM IN DIET FOR 10 WK BEGINNING 1 WK PRIOR TO CARCINOGEN TREATMENT (STUDY DURATION: 32 WK), Route [Inhibitor]: ORAL, Species: RAT, Strain/Sex: F344/MALE, Target Tissue: Type of Lesion: TONGUE: CARCINOMA, Dose [Carcinogen]: 20 PPM IN DRINKING WATER FOR 8 WK, Promoter: NONE USED
  tumour outcome (control, treated, inhibition, significance): 13/24 (54%), 3/17 (18%), 67%, p<0.05
Carcinogen: 4-NITROQUINOLINE-1-OXIDE, 56-57-5, Dose [Inhibitor]: 0, 500 PPM IN DIET FOR 10 WK BEGINNING 1 WK PRIOR TO CARCINOGEN TREATMENT (STUDY DURATION: 32 WK), Route [Inhibitor]: ORAL, Species: RAT, Strain/Sex: F344/MALE, Target Tissue: Type of Lesion: TONGUE: PAPILLOMA, Dose [Carcinogen]: 20 PPM IN DRINKING WATER FOR 8 WK, Promoter: NONE USED
  tumour outcome (control, treated, inhibition, significance): 4/24 (17%), 2/17 (12%), 29%, not significant
Carcinogen: 4-NITROQUINOLINE-1-OXIDE, 56-57-5, Dose [Inhibitor]: 0, 500 PPM IN DIET FOR 22 WK BEGINNING 1 WK POST CARCINOGEN TREATMENT (STUDY DURATION: 32 WK), Route [Inhibitor]: ORAL, Species: RAT, Strain/Sex: F344/MALE, Target Tissue: Type of Lesion: TONGUE: CARCINOMA, Dose [Carcinogen]: 20 PPM IN DRINKING WATER FOR 8 WK, Promoter: NONE USED
  tumour outcome (control, treated, inhibition, significance): 13/24 (54%), 4/17 (24%), 56%, p<0.05
Carcinogen: 4-NITROQUINOLINE-1-OXIDE, 56-57-5, Dose [Inhibitor]: 0, 500 PPM IN DIET FOR 22 WK BEGINNING 1 WK POST CARCINOGEN TREATMENT (STUDY DURATION: 32 WK), Route [Inhibitor]: ORAL, Species: RAT, Strain/Sex: F344/MALE, Target Tissue: Type of Lesion: TONGUE: PAPILLOMA, Dose [Carcinogen]: 20 PPM IN DRINKING WATER FOR 8 WK, Promoter: NONE USED
  tumour outcome (control, treated, inhibition, significance): 4/24 (17%), 2/17 (12%), 29%, not significant
Carcinogen: 7,12-DIMETHYLBENZ[A]ANTHRACENE, 57-97-6, Dose [Inhibitor]: 0, 0.05% IN DRINKING WATER AD LIBITUM FOR 30 WK BEGINNING 1 WK POST CARCINOGEN DOSE (STUDY DURATION: 31 WK), Route [Inhibitor]: ORAL, Species: MOUSE, Strain/Sex: ICR/FEMALE, Target Tissue: Type of Lesion: SKIN: TUMOR, Dose [Carcinogen]: 100 UG ONCE, Promoter: 12-O-TETRADECANOYLPHORBOL-13-ACETATE, 16561-29-8
  tumour outcome (control, treated, inhibition, significance): 13/16 (81%), 8/16 (50%), 38%, not significant
Carcinogen: 7,12-DIMETHYLBENZ[A]ANTHRACENE, 57-97-6, Dose [Inhibitor]: 0, 200 NMOL IN 200 µL ACETONE 2/WK BEGINNING 1 WK POST CARCINOGEN DOSE APPLIED SIMULTANEOUSLY WITH PROMOTER FOR 20 WK (S, Route [Inhibitor]: DERMAL, Species: MOUSE, Strain/Sex: ICR/?, Target Tissue: Type of Lesion: SKIN: PAPILLOMA, Dose [Carcinogen]: 100 UG ONCE, Promoter: 12-O-TETRADECANOYLPHORBOL-13-ACETATE, 16561-29-8
  tumour outcome (control, treated, inhibition, significance): 69%, 31%, 55%, not calculated
Carcinogen: 7,12-DIMETHYLBENZ[A]ANTHRACENE, 57-97-6, Dose [Inhibitor]: 0, 200 NMOL IN 200 µL ACETONE 2/WK FOR 40 WK APPLIED SIMULTANEOUSLY WITH PROMOTER BEGINNING 1 WK POST CARCINOGEN DOSE (S, Route [Inhibitor]: DERMAL, Species: MOUSE, Strain/Sex: ICR/FEMALE, Target Tissue: Type of Lesion: SKIN: TUMOR, Dose [Carcinogen]: 100 UG ONCE, Promoter: 12-O-TETRADECANOYLPHORBOL-13-ACETATE, 16561-29-8
  tumour outcome (control, treated, inhibition, significance): 10/15 (67%), 8/15 (53%), 21%, not significant
Carcinogen: 7,12-DIMETHYLBENZ[A]ANTHRACENE, 57-97-6, Dose [Inhibitor]: 0, 200 NMOL PALM CAROTENE FOR 22 WK BEGINNING 1 WK POST CARCINOGEN DOSE (STUDY DURATION: 40 WK), Route [Inhibitor]: DERMAL, Species: MOUSE, Strain/Sex: ICR/FEMALE, Target Tissue: Type of Lesion: SKIN: TUMOR, Dose [Carcinogen]: 100 UG ONCE, Promoter: GLYCOCHOLIC ACID, 475-31-0, MEZEREIN, 34807-41-5, Promoter: GLYCOCHOLIC ACID, 475-31-0, MEZEREIN, 34807-41-5
  tumour outcome (control, treated, inhibition, significance): 26%, 0%, 100%, not calculated
Carcinogen: 7,12-DIMETHYLBENZ[A]ANTHRACENE, 57-97-6, Dose [Inhibitor]: 0, 250 MG SUSPENDED IN LIQUID PARAFFIN APPLIED TO EACH CHEEK POUCH 2/WK BEGINNING 15 D POST LAST CARCINOGEN DOSE AND CON, Route [Inhibitor]: DERMAL, Species: HAMSTER, Strain/Sex: SYRIAN/MALE, Target Tissue: Type of Lesion: CHEEK POUCH: TUMOR, Dose [Carcinogen]: 0.125 MG (0.25% LIQUID PARAFFIN SOLUTION) APPLIED TO EACH CHEEK POUCH FOR 1 MO, Promoter: NONE USED
  tumour outcome (control, treated, inhibition, significance): 10/15 (67%), 0/20 (0%), 100%, not calculated
Carcinogen: 7,12-DIMETHYLBENZ[A]ANTHRACENE, 57-97-6, Dose [Inhibitor]: 0, 250 MG SUSPENDED IN LIQUID PARAFFIN APPLIED TO EACH CHEEK POUCH 2/WK BEGINNING 15 D POST LAST CARCINOGEN DOSE AND CON, Route [Inhibitor]: DERMAL, Species: HAMSTER, Strain/Sex: SYRIAN/MALE, Target Tissue: Type of Lesion: STOMACH: TUMOR, Dose [Carcinogen]: 0.125 MG (0.25% LIQUID PARAFFIN IN SOLUTION) APPLIED TO EACH CHEEK POUCH 2/WK FOR 1 MO, Promoter: NONE USED
  tumour outcome (control, treated, inhibition, significance): 15/15 (100%), 0/20 (0%), 100%, not calculated
Carcinogen: 7,12-DIMETHYLBENZ[A]ANTHRACENE, 57-97-6, Dose [Inhibitor]: 0, 290 IU/KG IN 100 µL PEANUT OIL 5 D/WK BEGINNING 1 WK POST CARCINOGEN DOSE AND CONTINUING FOR DURATION OF STUDY (STUDY, Route [Inhibitor]: GAVAGE, Species: MOUSE, Strain/Sex: HRA/SKH/FEMALE, Target Tissue: Type of Lesion: SKIN: CARCINOMA, Dose [Carcinogen]: 10 NMOL IN 50 µL ACETONE ONCE
  tumour outcome (control, treated, inhibition, significance): 7/25 (28%), 7/38 (18%), 36%, not calculated
Carcinogen: 7,12-DIMETHYLBENZ[A]ANTHRACENE, 57-97-6, Dose [Inhibitor]: 0, 290 IU/KG IN 100 µL PEANUT OIL 5 D/WK BEGINNING 1 WK POST CARCINOGEN DOSE AND CONTINUING FOR DURATION OF STUDY (STUDY, Route [Inhibitor]: GAVAGE, Species: MOUSE, Strain/Sex: HRA/SKH/FEMALE, Target Tissue: Type of Lesion: SKIN: PAPILLOMA, Dose [Carcinogen]: 10 NMOL IN 50 µL ACETONE ONCE
  outcome: 97%, 77%, 21%, not calculated at 20 wk; 68%, 50%, 27%, not calculated at 40 wk
